The results in this text go back to US6936591B2, “Amorphous 9-deoxo-9a-aza-9a-methyl-9a-homoerythromycin A, process for preparing the same, and uses thereof” (Pliva Pharmaceutical Industry, Incorporated, priority 2002, dated 2005).

Common to all, as to format: physicochemical
Data set [1] in a line: Dissolution profiles, USP Method 2, dissolved content by HPLC. The procedure:
For comparison, new pseudopolymorph Ic as prepared by the procedure in Example 3 above and new amorphous 9-deoxo-9a-aza-9a-methyl-9a-homoerythromycin A as prepared by the procedure in Example 11 above were used. The comparative dissolution profiles were determined by USP Method 2, PharmaTest Dissolution Tester, PTW SII; and the content of dissolved 9-deoxo-9a-aza-9a-methyl-9a-homoerythromycin A was measured by HPLC. The data thus obtained are set forth in Table 2 below, and plotted in FIGS. 8 (pH 3) and 9 (pH 6).

A short description of data set [2]: Intrinsic dissolution rate (IDR), Intrinsic Dissolution Tester, Van Kel Type. The note with it: medium of pH 6 and 37° C. As for the experimental part:
The intrinsic dissolution rates (IDR) for the new amorphous 9-deoxo-9a-aza-9a-methyl-9a-homoerythromycin A prepared according to the procedure of Example 11, and the commercial 9-deoxo-9a-aza-9a-methyl-9a-homoerythromycin A dihydrate, in medium of pH 6 and 37° C., were determined by Intrinsic Dissolution Tester, Van Kel Type. The IDR for the new amorphous 9-deoxo-9a-aza-9a-methyl-9a-homoerythromycin A was about […], about […] higher than the IDR of the prior art, i.e. 9-deoxo-9a-aza-9a-methyl-9a-homoerythromycin A dihydrate (about 1.8 mg min^−1cm^−2).

The nature of data set [3]: Hygroscopicity and stability at normal storage conditions.

Regarding `CC[C@H]1OC(=O)[C@H](C)[C@@H](O[C@H]2C[C@@](C)(OC)[C@@H](O)[C@H](C)O2)C(C)[C@@H](O[C@@H]2O[C@H](C)C[C@H](N(C)C)[C@H]2O)[C@](C)(O)C[C@@H](C)CN(C)[C@H](C)[C@@H](O)[C@]1(C)O` (stereo partly drawn) [Example 11, 9-deoxo-9a-aza-9a-methyl-9a-homoerythromycin A], in data set [1] (compared with the dihydrate), the “Specific dissolution rate as compared with the dihydrate” value is “significantly better”. For the same molecule, the Percent dissolved in data set [1] (pH 3, 37° C., 5 minutes) turned out to be 14.3%; in data set [1] (pH 3, 37° C., 10 minutes) it was 26.5%; in data set [1] (pH 3, 37° C., 20 minutes), 50.5%; in data set [1] (pH 3, 37° C., 45 minutes), 85.8%; in data set [1] (pH 3, 37° C., 60 minutes), 89.5%; in data set [1] (pH 6, 37° C., 5 minutes), 78.5%. In addition, the Percent dissolved turned out to be 97.5% in data set [1] (pH 6, 37° C., 10 minutes); 98.7% in data set [1] (pH 6, 37° C., 20 minutes); 96.7% in data set [1] (pH 6, 37° C., 45 minutes); 95.1% in data set [1] (pH 6, 37° C., 60 minutes). The “Intrinsic dissolution rate (IDR)” value in data set [2] is “about 2.79 mg min^−1 cm^−2”. Moreover, in data set [2] (relative to commercial dihydrate), the “IDR higher than the IDR of the dihydrate” value was “about 40%”. In addition, the Hygroscopicity result in data set [3] was “not hygroscopic”. For the same molecule, the “Stability (chemical stability and stability of the "crystal" form)” value in data set [3] (normal storage conditions) is recorded as “stable”.

Consider `CC[C@H]1OC(=O)[C@H](C)[C@@H](O[C@H]2C[C@@](C)(OC)[C@@H](O)[C@H](C)O2)[C@H](C)[C@@H](O[C@@H]2O[C@H](C)C[C@H](N(C)C)[C@H]2O)[C@](C)(O)C[C@@H](C)CN(C)[C@H](C)[C@@H](O)[C@]1(C)O` [Ic, 9-deoxo-9a-aza-9a-methyl-9a-homoerythromycin A], for which the Percent dissolved came to 12.3% in data set [1] (pH 3, 37° C., 5 minutes); 29.4% in data set [1] (pH 3, 37° C., 10 minutes); 52.5% in data set [1] (pH 3, 37° C., 20 minutes); 92.2% in data set [1] (pH 3, 37° C., 45 minutes); 93.2% in data set [1] (pH 3, 37° C., 60 minutes); 74.0% in data set [1] (pH 6, 37° C., 5 minutes). The Percent dissolved in data set [1] (pH 6, 37° C., 10 minutes) came to 98.8%; in data set [1] (pH 6, 37° C., 20 minutes) it was 98.6%; in data set [1] (pH 6, 37° C., 45 minutes) it was 95.3%; in data set [1] (pH 6, 37° C., 60 minutes), 94.6%.

As for `CC[C@H]1OC(=O)[C@H](C)[C@@H](O[C@H]2C[C@@](C)(OC)[C@@H](O)[C@H](C)O2)C(C)[C@@H](O[C@@H]2O[C@H](C)C[C@H](N(C)C)[C@H]2O)[C@](C)(O)C[C@@H](C)CN(C)[C@H](C)[C@@H](O)[C@]1(C)O` (stereo partly drawn) [9-deoxo-9a-aza-9a-methyl-9a-homoerythromycin A dihydrate, reference compound], the Percent dissolved in data set [1] (pH 3, 37° C., 5 minutes, dihydrate) is recorded as 3.9%; in data set [1] (pH 3, 37° C., 10 minutes, dihydrate), 8.1%; in data set [1] (pH 3, 37° C., 20 minutes, dihydrate), 14.6%; in data set [1] (pH 3, 37° C., 45 minutes, dihydrate), 26.7%; in data set [1] (pH 3, 37° C., 60 minutes, dihydrate), 33.3%; in data set [1] (pH 6, 37° C., 5 minutes, dihydrate), 14.5%. The Percent dissolved worked out at 27.3% in data set [1] (pH 6, 37° C., 10 minutes, dihydrate); 44.2% in data set [1] (pH 6, 37° C., 20 minutes, dihydrate); 69.1% in data set [1] (pH 6, 37° C., 45 minutes, dihydrate); 73.7% in data set [1] (pH 6, 37° C., 60 minutes, dihydrate). Besides, in data set [2] (dihydrate), the “Intrinsic dissolution rate (IDR)” value is given as “about 1.8 mg min^−1 cm^−2”.
